From US20220033407A1, “N-(pyridin-2-ylsulfonyl)cyclopropanecarboxamide Derivatives and their Use in the Treatment of Disease” (NOVARTIS AG, priority 2018, published 2022)

Key:
delF508-CFTR-HRP = target: T1, delF508-CFTR-HRP (Homo sapiens, UniProt P13569, DEL508-508); experiment: Measurement of delF508-CFTR-HRP surface expression in CFBE41o- cells (HRP luminescence); type: cell-based; settings: for EC50: mean of at least two replicates; for Emax: CFBE41o-, read-out: DelF508-CFTR-HRP Amax %;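 as to DelF508-CFTR-HRP Amax %: percent efficacy relative to a reference CFTR corrector compound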
T1 construct: expressed in transfected cells
Method in brief: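 Stably transfected CFBE41o- cells carrying HRP in the fourth extracellular loop of delF508-CFTR, induced with 500 ng/mL doxycycline for 48 h, then compound-treated 24 h at 37° C (10-point, 3-fold, top 10 μM). Surface HRP detected by luminescent substrate; EC50 from logistic fit, triplicates, normalized to lowest-concentration median.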

delF508-CFTR = target: T2, delF508-CFTR (Homo sapiens, UniProt P13569, DEL508-508); experiment: delF508-CFTR functional activity in primary human bronchial epithelial cells (HBECs), Multi-Transepithelial Clamp Circuit (MTECC-24) assay, equivalent short circuit current; type: cell-based; settings: primary CF HBECs; for MTECC24 CFHBEC-Amax %: relative to reference combination 2 μM 3-(6-(1-(2,2-difluorobenzo[d][1,3]dioxol-5-yl)cyclopropane-1-carboxamido)-3-methylpyridin-2-yl)benzoic acid (24 h) + 0.5 μM N-(2,4-di-tert-butyl-5-hydroxyphenyl)-4-oxo-1,4-dihydroquinoline-3-carboxamide; for EC50: test compound added 24 h before assay, potentiator (S)-3-amino-6-methoxy-N-(3,3,3-trifluoro-2-hydroxy-2-methylpropyl)-5-(trifluoromethyl)picolinamide present at assay, mean of at least two replicates, read-out: MTECC24 CFHBEC-EC50
T2 construct: functional activity of the CFTR channel (Chloride ion transport) in patient derived primary human bronchial epithelial cells; host or cells: patient-derived primary human bronchial epithelial cells (HBECs), delF508-CFTR
Source text: Measurement of delF508-CFTR Functional Activity in Primary Human Bronchial Epithelial Cells (HBECs) Using Multi-Transepithelial Clamp Circuit (MTECC-24) Assay
This assay measures the functional activity of the CFTR channel (Chloride ion transport) in patient derived primary human bronchial epithelial cells with forskolin activation and in the presence of the CFTR corrector wherein the corrector is a compound of the invention and the potentiator is (S)-3-amino-6-methoxy-N-(3,3,3-trifluoro-2-hydroxy-2-methylpropyl)-5-(trifluoromethyl)picolinamide.
Primary human delF508-CFTR bronchial epithelial cells were purchased from Asterand and cultured according to previously established methods (Fulcher et al. (2005) Methods Mol Med 107: 183-206). Briefly, vendor supplied cells were rapidly defrosted and added to a T175 flask in 50 mL growth media (Lonza BEBM media with Lonza BEGM singlequots). Media was replaced after 24 h and then cells were fed every other day until cells were 80-90% confluent, at which point cells were cryopreserved. These P1 vials were thawed at 37° C. as needed and added to T175 flasks in 50 mL growth media at 5×10^5 cells/flask. Media was replaced after 24 h, and then cells were fed every other day until 80-90% confluent. Cells were lifted with 5 mL Accutase at 37° C. for 5 minutes, centrifuged at 1000 rpms for 5 min (300 g), and resuspended in differentiation media (50% BEBM in DMEM, BEGM singlequots, all trans retinoic acid (5×10·8M)). Cells were then counted and cell suspension was added to collagen coated inserts at 3×10^4 cells/insert in 0.15 mL with 0.5 mL differentiation media on the basolateral side.
Apical and basolateral media were replaced on alternate days, and following day 7 (or when confluent plus 2 days), air liquid interface was established for approximately two weeks by removal of apical media. One day prior to use on the MTECC24 system (EP-Devices, EP Design, Belgium), 0.15 mL of warmed (37° C.) PBS was added to the apical surface of the cultures and returned to humidifier (37° C., 5% CO2 incubator) for 30 min before aspirating the apical surface to remove any mucus.
Compound treatments were then prepared. Compound dilutions, typically a 10 point concentration response with 1 in 3 dilution steps, were made in 100% DMSO before dilution 1 in 1000 into differentiation medium with a final DMSO concentration of 0.1% or 0.2% for the study. Compound containing medium was then transferred into the wells of a 24 well plate at 0.5 mL per well and warmed for 30 min in a 37° C. incubator prior to transferring washed inserts into the compound containing plates. Cells were incubated in compound containing medium (basolateral only) for 24 h prior to measurement in the MTECC24 system.
Following 24 hr treatment, compound dilutions were prepared again, diluted 1 in 1000 into 37° C. assay medium (F-12 Coon's modified, 20 mM HEPES pH7.4 with TRIS Base, No FCS or bicarbonate). Cells which were treated for 24 h with test compound were then transferred into plates containing 0.75 mL compound treatment in assay medium (basolateral) and 0.25 mL of the compound containing assay medium was added to the apical surface. The plates were then transferred to the heated plate compartments of the MTECC24 system for 45 min prior to measurements (this can also be done in a non-CO2 37° C. humidified incubator). Basolateral temperature should not exceed 36.5° C. and apical temperature should be approximately 35.5° C.
Modulators were added sequentially as follows while the MTECC24 instrument recorded the equivalent short circuit current (Ieq)
Prior to dilution into F-12 medium the stocks are as follows: Amiloride stock is 10 mM in H2O
Forskolin Stock is 10 mM in 100% DMSO
(S)-3-amino-6-methoxy-N-(3,3,3-trifluoro-2-hydroxy-2-methylpropyl)-5-(trifluoromethyl)picolinamide is 0.5 mM stock in 100% DMSO INH-172 (4-[[4-Oxo-2-thioxo-3-[3-trifluoromethyl)phenyl]-5-thiazolidinylidene]methyl]benzoic acid) stock is 30 mM in 100% DMSO […]

T2 sequence (P13569 with tags, fused parts or gaps DEL508-508): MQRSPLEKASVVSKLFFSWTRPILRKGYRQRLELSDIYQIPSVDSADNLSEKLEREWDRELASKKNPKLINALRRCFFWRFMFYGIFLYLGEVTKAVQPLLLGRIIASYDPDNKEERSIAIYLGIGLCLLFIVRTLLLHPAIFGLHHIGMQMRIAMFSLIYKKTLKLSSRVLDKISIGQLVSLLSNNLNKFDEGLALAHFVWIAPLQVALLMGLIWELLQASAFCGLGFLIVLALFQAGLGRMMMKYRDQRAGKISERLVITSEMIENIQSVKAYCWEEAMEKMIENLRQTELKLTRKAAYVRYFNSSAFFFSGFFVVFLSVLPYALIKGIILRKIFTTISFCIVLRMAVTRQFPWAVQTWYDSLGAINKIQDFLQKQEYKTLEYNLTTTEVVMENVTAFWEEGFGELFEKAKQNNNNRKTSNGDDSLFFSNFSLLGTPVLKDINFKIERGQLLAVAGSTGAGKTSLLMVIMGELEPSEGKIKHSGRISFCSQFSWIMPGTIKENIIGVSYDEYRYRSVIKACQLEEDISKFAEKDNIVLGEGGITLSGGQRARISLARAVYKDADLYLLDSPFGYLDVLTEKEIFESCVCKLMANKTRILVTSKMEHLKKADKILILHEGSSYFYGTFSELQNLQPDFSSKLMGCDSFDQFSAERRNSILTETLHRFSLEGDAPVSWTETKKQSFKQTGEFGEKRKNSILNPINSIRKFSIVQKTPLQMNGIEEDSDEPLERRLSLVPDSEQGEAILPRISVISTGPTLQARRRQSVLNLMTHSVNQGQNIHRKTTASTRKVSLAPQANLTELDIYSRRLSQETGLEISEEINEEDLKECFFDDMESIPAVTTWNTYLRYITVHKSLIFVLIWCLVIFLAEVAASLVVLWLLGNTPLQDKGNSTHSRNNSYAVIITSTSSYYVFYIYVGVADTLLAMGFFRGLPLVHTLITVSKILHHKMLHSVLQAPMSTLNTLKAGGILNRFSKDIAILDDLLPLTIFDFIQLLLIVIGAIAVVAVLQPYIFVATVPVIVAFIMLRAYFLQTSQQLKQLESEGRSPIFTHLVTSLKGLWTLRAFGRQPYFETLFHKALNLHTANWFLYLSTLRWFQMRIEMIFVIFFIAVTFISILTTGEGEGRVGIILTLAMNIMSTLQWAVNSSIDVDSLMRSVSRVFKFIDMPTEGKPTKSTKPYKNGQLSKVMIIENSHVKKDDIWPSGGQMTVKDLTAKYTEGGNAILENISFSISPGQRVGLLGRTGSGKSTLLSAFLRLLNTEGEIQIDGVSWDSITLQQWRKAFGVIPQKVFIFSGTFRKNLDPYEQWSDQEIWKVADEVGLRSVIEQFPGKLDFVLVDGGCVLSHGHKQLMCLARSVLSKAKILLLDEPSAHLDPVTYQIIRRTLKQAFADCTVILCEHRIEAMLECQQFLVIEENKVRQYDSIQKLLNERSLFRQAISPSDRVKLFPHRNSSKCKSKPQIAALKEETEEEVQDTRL
T1 sequence (P13569 with tags, fused parts or gaps DEL508-508): as above

SMILES | DelF508-CFTR-HRP Amax % (delF508-CFTR-HRP) [%] | EC50 (delF508-CFTR-HRP) [nM] | MTECC24 CFHBEC-Amax % (delF508-CFTR) [%] | EC50 (delF508-CFTR) [nM] | Emax (delF508-CFTR-HRP) [%]
Cc1ccc(C2CCC(C)(C)OC2)c(OC2(C(=O)NS(=O)(=O)c3cccc(N4CCC(O)(C(F)(F)F)CC4)n3)CC2)c1 (single isomer, unassigned) [Example 11-2-2, 1-(2-(6,6-Dimethyltetrahydro-2H-pyran-3-yl)-5-methylphenoxy)-N-((6-(4-hydroxy-4-(trifluoromethyl)piperidin-1-yl)pyridin-2-yl)sulfonyl)cyclopropane-1-carboxamide] | 361.4 | 1780 | 100.3 | 757 | –
Cc1ccc(C2CCCCC2)c(OC2(C(=O)NS(=O)(=O)c3cccc(NC[C@@H](C)O)n3)CC2)c1 [Example 2-46, (R)-1-(2-cyclohexyl-5-methylphenoxy)-N-((6-((2-hydroxypropyl)amino)pyridin-2-yl)sulfonyl)cyclopropane-1-carboxamide] | – | 2860 | 89 | 3 | 813
Cc1ccc(C2CCC(F)(F)CC2)c(OC2(C(=O)NS(=O)(=O)c3cccc(N4CCCC(CO)C4)n3)CC2)c1 (single isomer, unassigned) [Example 3-3-2, 1-(2-(4,4-Difluorocyclohexyl)-5-methylphenoxy)-N-((6-(3-(hydroxymethyl)piperidin-1-yl)pyridin-2-yl)sulfonyl)cyclopropane-1-carboxamide] | 614 | 2760 | 78 | 10 | –
O=C(NS(=O)(=O)c1cccc(N2CC[C@H](O)C2)n1)C1(Oc2cc(Cl)ccc2N2CC3(C2)CC(F)(F)C3)CC1 [Example 9-22, (S)-1-(5-Chloro-2-(6,6-difluoro-2-azaspiro[3.3]heptan-2-yl)phenoxy)-N-((6-(3-hydroxypyrrolidin-1-yl)pyridin-2-yl)sulfonyl)cyclopropanecarboxamide] | – | 4460 | 82.1 | 1760 | 139
Cc1ccc(C2CCCCC2)c(OC2(C(=O)NS(=O)(=O)c3cccc(N4CCC(N)(C(F)(F)F)CC4)n3)CC2)c1 [Example 2-17, N-((6-(4-Amino-4-(trifluoromethyl)piperidin-1-yl)pyridin-2-yl)sulfonyl)-1-(2-cyclohexyl-5-methylphenoxy)cyclopropanecarboxamide] | – | 730 | 90 | 4 | 503
CC(C)CCOc1ccc(Cl)cc1OC1(C(=O)NS(=O)(=O)c2cccc(N3CC[C@H](O)C3)n2)CC1 [Example 6-12, (S)-1-(5-chloro-2-(isopentyloxy)phenoxy)-N-((6-(3-hydroxypyrrolidin-1-yl)pyridin-2-yl)sulfonyl)cyclopropanecarboxamide] | – | 2710 | 111.4 | 852 | 297
Cc1ccc(C2CCC(F)(F)CC2)c(OC2(C(=O)NS(=O)(=O)c3cccc(N4CCCC(CO)C4)n3)CC2)c1 (single isomer, unassigned) [Example 3-3-1] | – | 2870 | 99 | 11 | 597
Cc1ccc(C2CCCCC2)c(OC2(C(=O)NS(=O)(=O)c3cccc(N[C@H]4C[C@@H](O)C4)n3)CC2)c1 [Example 2-36, 1-(2-Cyclohexyl-5-methylphenoxy)-N-((6-((cis-3-hydroxycyclobutyl)amino)pyridin-2-yl)sulfonyl)cyclopropane-1-carboxamide] | – | 2090 | 152 | 44 | 432
Cc1ccc(-c2cccc(C(F)(F)F)c2)c(OC2(C(=O)NS(=O)(=O)c3cccc(N4CC[C@@H](O)C4)n3)CC2)c1 [Example 5-11, (R)—N-((6-(3-Hydroxypyrrolidin-1-yl)pyridin-2-yl)sulfonyl)-1-((4-methyl-3′-(trifluoromethyl)-[1,1′-biphenyl]-2-yl)oxy)cyclopropane-1-carboxamide] | – | 2180 | 68 | 20 | 371
O=C(NS(=O)(=O)c1cccc(N2CC(O)C2)n1)C1(Oc2cc(Cl)ccc2C2CCC3(CC2)CC3)CC1 [Example 4-12, 1-(5-Chloro-2-(spiro[2.5]octan-6-yl)phenoxy)-N-((6-(3-hydroxyazetidin-1-yl)pyridin-2-yl)sulfonyl)cyclopropane-1-carboxamide] | – | 1920 | 82 | 51 | 418
Cc1ccc(C2CCCCCC2)c(OC2(C(=O)NS(=O)(=O)c3cccc(N)n3)CC2)c1 [Example 1-6, N-((6-Aminopyridin-2-yl)sulfonyl)-1-(2-cycloheptyl-5-methylphenoxy)cyclopropane-1-carboxamide] | – | 1310 | 87 | 2 | 765
CC1(NC(=O)OC(C)(C)C)CCN(c2cccc(S(=O)(=O)NC(=O)C3(Oc4cc(Cl)ccc4C4CC5(CCC5)C4)CC3)n2)CC1 [Example 7-7, Tert-butyl (1-(6-(N-(1-(5-chloro-2-(spiro[3.3]heptan-2-yl)phenoxy)cyclopropanecarbonyl)sulfamoyl)pyridin-2-yl)-4-methylpiperidin-4-yl)carbamate] | – | 590 | – | – | 357
O=C(NS(=O)(=O)c1cccc(N2CCC(O)(C(F)(F)F)CC2)n1)C1(Oc2cc(Cl)ccc2N2CC3(CCCCC3)C2)CC1 [Example 9-2, 1-(5-chloro-2-(2-azaspiro[3.5]nonan-2-yl)phenoxy)-N-((6-(4-hydroxy-4-(trifluoromethyl)piperidin-1-yl)pyridin-2-yl)sulfonyl)cyclopropanecarboxamide] | – | 600 | – | – | 366
CC(C)(C)C1CCC(Nc2ccc(Cl)cc2OC2(C(=O)NS(=O)(=O)c3cccc(N4CC[C@H](O)C4)n3)CC2)CC1 (single isomer, unassigned) [Example 9-5-1] | 93.6 | 960 | – | – | –
CC(C)(C)C1(O)CCN(c2cccc(S(=O)(=O)NC(=O)C3(Oc4cc(Cl)ccc4C4CC5(CCC5)C4)CC3)n2)CC1 [Example 7-4, N-((6-(4-(tert-butyl)-4-hydroxypiperidin-1-yl)pyridin-2-yl)sulfonyl)-1-(5-chloro-2-(spiro[3.3]heptan-2-yl)phenoxy)cyclopropanecarboxamide] | – | 440 | – | – | 840
Cc1ccc(OC2CCCC2)c(OC2(C(=O)NS(=O)(=O)c3cccc(N4CC[C@H](O)C4)n3)CC2)c1 [Example 6-13, (S)-1-(2-(cyclopentyloxy)-5-methylphenoxy)-N-((6-(3-hydroxypyrrolidin-1-yl)pyridin-2-yl)sulfonyl)cyclopropanecarboxamide] | – | 2550 | – | – | 285
